Assay results published in ChEMBL document CHEMBL1142759, “Synthesis of some diguanidino 1-methyl-2,5-diaryl-1H-pyrroles as antifungal agents” (2005).
Converted amounts (≈) assume the structure as drawn.

Experiments:
Candida [1] = assay: Minimum inhibitory concentration against Candida krusei ATCC 6528 evaluated by in vitro agar diffusion and micro-broth dilution assay; format: functional, Candida kruisii
Candida parapsilosis = assay: Minimum inhibitory concentration against Candida parapsilosis ATCC 22019 evaluated by in vitro agar diffusion and micro-broth dilution assay; format: functional; conditions: Lodderomyces parapsilosis
Aspergillus fumigatus = assay: Minimum inhibitory concentration against Aspergillus fumigatus LSI-11 evaluated by in vitro agar diffusion and microbroth dilution assay; format: functional
Candida albicans [2] = assay: Minimum inhibitory concentration against Candida albicans A261 evaluated by in vitro agar diffusion and micro-broth dilution assay; format: functional
Candida [3] = assay: Minimum inhibitory concentration against Candida krusei 1766-1 evaluated by in vitro agar diffusion and micro-broth dilution assay; format: functional, Candida kruisii
Candida albicans [4] = assay: Minimum inhibitory concentration against Candida albicans V-01-191 evaluated by in vitro agar diffusion and microbroth dilution assay; format: functional
Nakaseomyces glabratus = assay: Minimum inhibitory concentration against Candida glabrata ATCC 90030 evaluated by in vitro agar diffusion and microbroth dilution assay; format: functional
Candida tropicalis = assay: Minimum inhibitory concentration against Candida tropicalis ATCC750 evaluated by in vitro agar diffusion and microbroth dilution assay; format: functional

Structure (SMILES)	MIC (Candida [1])	MIC (Candida parapsilosis)	MIC (Aspergillus fumigatus)	MIC (Candida albicans [2])	MIC (Candida [3])	MIC (Candida albicans [4])	MIC (Nakaseomyces glabratus)	MIC (Candida tropicalis)
Cn1c(-c2cc(F)c(NC(=N)N)cc2F)ccc1-c1cc(F)c(NC(=N)N)cc1F	> 16 µg/mL	> 16 µg/mL	> 16 µg/mL	> 16 µg/mL	> 16 µg/mL	> 16 µg/mL	> 16 µg/mL	> 16 µg/mL
COc1cc(NC(=N)N)ccc1-c1ccc(-c2ccc(NC(=N)N)cc2OC)n1C	16 µg/mL (≈ 39.3 µM)	16 µg/mL (≈ 39.3 µM)	16 µg/mL (≈ 39.3 µM)	16 µg/mL (≈ 39.3 µM)	16 µg/mL (≈ 39.3 µM)	16 µg/mL (≈ 39.3 µM)	16 µg/mL (≈ 39.3 µM)	16 µg/mL (≈ 39.3 µM)
Cn1c(-c2ccc(N=C(N)N)c(C(F)(F)F)c2)ccc1-c1ccc(N=C(N)N)c(C(F)(F)F)c1	16 µg/mL (≈ 33.1 µM)	16 µg/mL (≈ 33.1 µM)	16 µg/mL (≈ 33.1 µM)	16 µg/mL (≈ 33.1 µM)	16 µg/mL (≈ 33.1 µM)	16 µg/mL (≈ 33.1 µM)	16 µg/mL (≈ 33.1 µM)	4 µg/mL (≈ 8.27 µM)
Cn1c(-c2ccc(NC(=N)N)cc2)ccc1-c1ccc(NC(=N)N)cc1	> 16 µg/mL	> 16 µg/mL	> 16 µg/mL	> 16 µg/mL	> 16 µg/mL	> 16 µg/mL	> 16 µg/mL	> 16 µg/mL
Cc1cc(NC(=N)N)ccc1-c1ccc(-c2ccc(NC(=N)N)cc2C)n1C	4 µg/mL (≈ 10.7 µM)	2 µg/mL (≈ 5.33 µM)	16 µg/mL (≈ 42.6 µM)	2 µg/mL (≈ 5.33 µM)	8 µg/mL (≈ 21.3 µM)	2 µg/mL (≈ 5.33 µM)	2 µg/mL (≈ 5.33 µM)	1 µg/mL (≈ 2.66 µM)
Cn1c(-c2ccc(NC(=N)N)cc2Cl)ccc1-c1ccc(NC(=N)N)cc1Cl	16 µg/mL (≈ 38.4 µM)	16 µg/mL (≈ 38.4 µM)	> 16 µg/mL	8 µg/mL (≈ 19.2 µM)	16 µg/mL (≈ 38.4 µM)	8 µg/mL (≈ 19.2 µM)	16 µg/mL (≈ 38.4 µM)	4 µg/mL (≈ 9.61 µM)
OC(Cn1cncn1)(Cn1cncn1)c1ccc(F)cc1F [FLUCONAZOLE]	> 8 µg/mL	8 µg/mL (≈ 26.1 µM)	≥ 64 µg/mL	0.25 µg/mL (≈ 0.816 µM)	32 µg/mL (≈ 104 µM)	6 µg/mL (≈ 19.6 µM)	> 8 µg/mL	8 µg/mL (≈ 26.1 µM)
CCC(C)n1ncn(-c2ccc(N3CCN(c4ccc(OC[C@H]5CO[C@](Cn6cncn6)(c6ccc(Cl)cc6Cl)O5)cc4)CC3)cc2)c1=O (some centres undefined) [ITRACONAZOLE]	0.25 µg/mL (≈ 0.354 µM)	0.25 µg/mL (≈ 0.354 µM)	0.12 µg/mL (≈ 0.17 µM)	< 0.03 µg/mL	< 0.03 µg/mL	0.25 µg/mL (≈ 0.354 µM)	0.25 µg/mL (≈ 0.354 µM)	0.12 µg/mL (≈ 0.17 µM)
